Holding throughout (assay): relative viability (nuclei count vs DMSO), 5 days (fraction); higher = more cells survive
Compound in the assay “Decitabine + Bortezomib”: Nc1ncn([C@H]2C[C@H](O)[C@@H](CO)O2)c(=O)n1 [Decitabine] + CC(C)C[C@H](NC(=O)[C@H](Cc1ccccc1)NC(=O)c1cnccn1)B(O)O [Bortezomib] (partner 0.002 µM)
Summed up:
(§1)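 Lung cancer cell lines were seeded in 1536-well plates and dosed by pin tool the next day, with either a single drug or a fixed anchor-drug dose combined with five library-drug doses (not always all listed) spaced in √10 steps. Five days later, one step fixed the cells and stained their nuclei (final 0.05% Triton X-100, 1% formaldehyde, 1 ug/ml Hoechst), and nuclei were counted on 4× images. Relative viability is the nuclei count in treated wells divided by the count in vehicle wells, and each value is the median of duplicate plates.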

Compound in the assay “Decitabine + Vorinostat”: Nc1ncn([C@H]2C[C@H](O)[C@@H](CO)O2)c(=O)n1 [Decitabine] + O=C(CCCCCCC(=O)Nc1ccccc1)NO [Vorinostat] (partner 1 µM)
The essentials:
as §1

Compound in the assay “Decitabine + Luminespib”: Nc1ncn([C@H]2C[C@H](O)[C@@H](CO)O2)c(=O)n1 [Decitabine] + CCNC(=O)c1noc(-c2cc(C(C)C)c(O)cc2O)c1-c1ccc(CN2CCOCC2)cc1 [Luminespib] (partner 0.01 µM)
The essentials:
as §1

Compound in the assay “Decitabine + AZD7762”: Nc1ncn([C@H]2C[C@H](O)[C@@H](CO)O2)c(=O)n1 [Decitabine] + NC(=O)Nc1cc(-c2cccc(F)c2)sc1C(=O)N[C@H]1CCCNC1 [AZD7762] (partner 0.2 µM)
The essentials:
as §1

For the cell line EKVX, the relative viability with Decitabine + Bortezomib (first compound 0.04 µM) is 0.71; with Decitabine + Bortezomib (first compound 0.1265 µM), 0.776; with Decitabine + Bortezomib (first compound 0.4 µM), 0.798; with Decitabine + Bortezomib (first compound 1.265 µM), 0.383; in the assay with Decitabine + Bortezomib (first compound 4 µM) it was 0.381; in the assay with Decitabine + Vorinostat (first compound 0.04 µM) it was 0.455. For the same cell line, the relative viability with Decitabine + Vorinostat (first compound 0.1265 µM) stood at 0.506; in the assay with Decitabine + Vorinostat (first compound 0.4 µM), 0.507; in the assay with Decitabine + Vorinostat (first compound 1.265 µM) it was 0.432; in the assay with Decitabine + Vorinostat (first compound 4 µM), 0.335; with Decitabine + Luminespib (first compound 0.04 µM), 0.68; in the assay with Decitabine + Luminespib (first compound 0.1265 µM) it was 0.682. The relative viability with Decitabine + Luminespib (first compound 0.4 µM) amounted to 0.551; in the assay with Decitabine + Luminespib (first compound 1.265 µM), 0.389; in the assay with Decitabine + Luminespib (first compound 4 µM), 0.322; with Decitabine + AZD7762 (first compound 0.04 µM) it was 0.505; with Decitabine + AZD7762 (first compound 0.1265 µM), 0.611; with Decitabine + AZD7762 (first compound 0.4 µM) it was 0.549. In addition, the relative viability worked out at 0.394 with Decitabine + AZD7762 (first compound 1.265 µM) and 0.33 with Decitabine + AZD7762 (first compound 4 µM).

For NCI-H838, the relative viability with Decitabine + Bortezomib (first compound 0.04 µM) came to 0.528; in the assay with Decitabine + Bortezomib (first compound 0.1265 µM), 0.381; with Decitabine + Bortezomib (first compound 0.4 µM), 0.293; with Decitabine + Bortezomib (first compound 1.265 µM), 0.296; with Decitabine + Bortezomib (first compound 4 µM), 0.243; with Decitabine + Vorinostat (first compound 0.04 µM) it was 0.701. The relative viability with Decitabine + Vorinostat (first compound 0.1265 µM) stood at 0.595; with Decitabine + Vorinostat (first compound 0.4 µM), 0.641; with Decitabine + Vorinostat (first compound 1.265 µM), 0.383; with Decitabine + Vorinostat (first compound 4 µM), 0.34; with Decitabine + Luminespib (first compound 0.04 µM), 0.213; with Decitabine + Luminespib (first compound 0.1265 µM), 0.188. The relative viability in the assay with Decitabine + Luminespib (first compound 0.4 µM) is 0.296; with Decitabine + Luminespib (first compound 1.265 µM), 0.191; with Decitabine + Luminespib (first compound 4 µM) it was 0.165; with Decitabine + AZD7762 (first compound 0.04 µM) it was 0.74; with Decitabine + AZD7762 (first compound 0.1265 µM), 0.753; in the assay with Decitabine + AZD7762 (first compound 0.4 µM) it was 0.815. Besides, the relative viability in the assay with Decitabine + AZD7762 (first compound 1.265 µM) was determined as 0.68; with Decitabine + AZD7762 (first compound 4 µM), 0.659.

Turning to NCI-H2085, the relative viability amounted to 0.751 with Decitabine + Bortezomib (first compound 0.04 µM); 0.801 with Decitabine + Bortezomib (first compound 0.1265 µM); 0.58 in the assay with Decitabine + Bortezomib (first compound 0.4 µM); 0.451 with Decitabine + Bortezomib (first compound 1.265 µM); 0.366 with Decitabine + Bortezomib (first compound 4 µM); 0.65 with Decitabine + Vorinostat (first compound 0.04 µM). The relative viability in the assay with Decitabine + Vorinostat (first compound 0.1265 µM) stood at 0.657; in the assay with Decitabine + Vorinostat (first compound 0.4 µM), 0.591; in the assay with Decitabine + Vorinostat (first compound 1.265 µM), 0.443; in the assay with Decitabine + Vorinostat (first compound 4 µM), 0.431; with Decitabine + Luminespib (first compound 0.04 µM), 0.436; with Decitabine + Luminespib (first compound 0.1265 µM), 0.404. The relative viability with Decitabine + Luminespib (first compound 0.4 µM) was 0.323; in the assay with Decitabine + Luminespib (first compound 1.265 µM), 0.372; in the assay with Decitabine + Luminespib (first compound 4 µM), 0.344; in the assay with Decitabine + AZD7762 (first compound 0.04 µM), 0.757; in the assay with Decitabine + AZD7762 (first compound 0.1265 µM), 0.852; in the assay with Decitabine + AZD7762 (first compound 0.4 µM), 0.655. For the same cell line, the relative viability with Decitabine + AZD7762 (first compound 1.265 µM) was found to be 0.527; with Decitabine + AZD7762 (first compound 4 µM) it was 0.615.
